{
  "source": "ChEMBL document CHEMBL5244230",
  "about": "“Artemisinin-derived hybrids and their anticancer activity” (Eur J Med Chem, 2020)",
  "data": [
    {"system": "HeLa", "assay": "Cytotoxicity against human HeLa cells assessed as cell growth inhibition measured after 48 hrs by MTT assay", "type": "functional", "details": "not given", "units": {"GI50": "nM"}, "values": [
      {"smiles": "C[C@@H]1[C@@H](n2cc(-c3ccccc3)nn2)O[C@@H]2O[C@@]3(C)CC[C@H]4[C@H](C)CC[C@@H]1[C@@]24OO3", "GI50": 30},
      {"smiles": "C[C@H]1[C@H](n2nncc2-c2cc(F)cc(F)c2)O[C@@H]2O[C@@]3(C)CC[C@H]4[C@H](C)CC[C@@H]1[C@@]24OO3", "GI50": 40},
      {"smiles": "C[C@H]1[C@@H](n2cc(-c3ccccc3)nn2)O[C@@H]2O[C@@]3(C)CC[C@H]4[C@H](C)CC[C@@H]1[C@@]24OO3", "GI50": 130},
      {"smiles": "C[C@H]1[C@H](n2cc(-c3ccccc3C(F)(F)F)nn2)O[C@@H]2O[C@@]3(C)CC[C@H]4[C@H](C)CC[C@@H]1[C@@]24OO3", "GI50": 50},
      {"smiles": "CCCCCc1ccc(-c2cnnn2[C@@H]2O[C@@H]3O[C@@]4(C)CC[C@H]5[C@H](C)CC[C@@H]([C@H]2C)[C@@]35OO4)cc1", "GI50": 40},
      {"smiles": "Cc1ccc(-c2cn([C@H]3O[C@@H]4O[C@@]5(C)CC[C@H]6[C@H](C)CC[C@@H]([C@@H]3C)[C@@]46OO5)nn2)cc1", "GI50": 30},
      {"smiles": "C[C@H]1[C@H](n2nncc2-c2ccccc2C(F)(F)F)O[C@@H]2O[C@@]3(C)CC[C@H]4[C@H](C)CC[C@@H]1[C@@]24OO3", "GI50": 40},
      {"smiles": "C[C@@H]1CC[C@H]2[C@@H](C)C(n3cc(-c4cccc(Cl)c4)nn3)O[C@@H]3O[C@@]4(C)CC[C@@H]1[C@]32OO4", "note": "(stereo partly drawn)", "GI50": 50}
    ]},
    {"system": "not listed separately", "assay": "Cytotoxicity against human U87 cells assessed as cell growth inhibition measured after 48 hrs by MTT assay", "type": "functional, U-87MG ATCC", "details": "U-87 MG", "units": {"GI50": "nM"}, "values": [
      {"smiles": "C[C@@H]1[C@@H](n2cc(-c3ccccc3)nn2)O[C@@H]2O[C@@]3(C)CC[C@H]4[C@H](C)CC[C@@H]1[C@@]24OO3", "GI50": 30},
      {"smiles": "C[C@H]1[C@H](n2nncc2-c2cc(F)cc(F)c2)O[C@@H]2O[C@@]3(C)CC[C@H]4[C@H](C)CC[C@@H]1[C@@]24OO3", "GI50": 40},
      {"smiles": "C[C@H]1[C@@H](n2cc(-c3ccccc3)nn2)O[C@@H]2O[C@@]3(C)CC[C@H]4[C@H](C)CC[C@@H]1[C@@]24OO3", "GI50": 130},
      {"smiles": "C[C@H]1[C@H](n2cc(-c3ccccc3C(F)(F)F)nn2)O[C@@H]2O[C@@]3(C)CC[C@H]4[C@H](C)CC[C@@H]1[C@@]24OO3", "GI50": 50},
      {"smiles": "CCCCCc1ccc(-c2cnnn2[C@@H]2O[C@@H]3O[C@@]4(C)CC[C@H]5[C@H](C)CC[C@@H]([C@H]2C)[C@@]35OO4)cc1", "GI50": 40},
      {"smiles": "Cc1ccc(-c2cn([C@H]3O[C@@H]4O[C@@]5(C)CC[C@H]6[C@H](C)CC[C@@H]([C@@H]3C)[C@@]46OO5)nn2)cc1", "GI50": 30},
      {"smiles": "C[C@H]1[C@H](n2nncc2-c2ccccc2C(F)(F)F)O[C@@H]2O[C@@]3(C)CC[C@H]4[C@H](C)CC[C@@H]1[C@@]24OO3", "GI50": 40},
      {"smiles": "C[C@@H]1CC[C@H]2[C@@H](C)C(n3cc(-c4cccc(Cl)c4)nn3)O[C@@H]3O[C@@]4(C)CC[C@@H]1[C@]32OO4", "note": "(stereo partly drawn)", "GI50": 50}
    ]},
    {"system": "A 172", "assay": "Cytotoxicity against human A-172 cells assessed as cell growth inhibition measured after 48 hrs by MTT assay", "type": "functional", "details": "not given", "units": {"GI50": "nM"}, "values": [
      {"smiles": "C[C@@H]1[C@@H](n2cc(-c3ccccc3)nn2)O[C@@H]2O[C@@]3(C)CC[C@H]4[C@H](C)CC[C@@H]1[C@@]24OO3", "GI50": 30},
      {"smiles": "C[C@H]1[C@H](n2nncc2-c2cc(F)cc(F)c2)O[C@@H]2O[C@@]3(C)CC[C@H]4[C@H](C)CC[C@@H]1[C@@]24OO3", "GI50": 40},
      {"smiles": "C[C@H]1[C@@H](n2cc(-c3ccccc3)nn2)O[C@@H]2O[C@@]3(C)CC[C@H]4[C@H](C)CC[C@@H]1[C@@]24OO3", "GI50": 130},
      {"smiles": "C[C@H]1[C@H](n2cc(-c3ccccc3C(F)(F)F)nn2)O[C@@H]2O[C@@]3(C)CC[C@H]4[C@H](C)CC[C@@H]1[C@@]24OO3", "GI50": 50},
      {"smiles": "CCCCCc1ccc(-c2cnnn2[C@@H]2O[C@@H]3O[C@@]4(C)CC[C@H]5[C@H](C)CC[C@@H]([C@H]2C)[C@@]35OO4)cc1", "GI50": 40},
      {"smiles": "Cc1ccc(-c2cn([C@H]3O[C@@H]4O[C@@]5(C)CC[C@H]6[C@H](C)CC[C@@H]([C@@H]3C)[C@@]46OO5)nn2)cc1", "GI50": 30},
      {"smiles": "C[C@H]1[C@H](n2nncc2-c2ccccc2C(F)(F)F)O[C@@H]2O[C@@]3(C)CC[C@H]4[C@H](C)CC[C@@H]1[C@@]24OO3", "GI50": 40},
      {"smiles": "C[C@@H]1CC[C@H]2[C@@H](C)C(n3cc(-c4cccc(Cl)c4)nn3)O[C@@H]3O[C@@]4(C)CC[C@@H]1[C@]32OO4", "note": "(stereo partly drawn)", "GI50": 50}
    ]},
    {"system": "B16", "assay": "Cytotoxicity against mouse B16 cells assessed as cell growth inhibition measured after 48 hrs by MTT assay", "type": "functional", "details": "not given", "units": {"GI50": "nM"}, "values": [
      {"smiles": "C[C@@H]1[C@@H](n2cc(-c3ccccc3)nn2)O[C@@H]2O[C@@]3(C)CC[C@H]4[C@H](C)CC[C@@H]1[C@@]24OO3", "GI50": 30},
      {"smiles": "C[C@H]1[C@H](n2nncc2-c2cc(F)cc(F)c2)O[C@@H]2O[C@@]3(C)CC[C@H]4[C@H](C)CC[C@@H]1[C@@]24OO3", "GI50": 40},
      {"smiles": "C[C@H]1[C@@H](n2cc(-c3ccccc3)nn2)O[C@@H]2O[C@@]3(C)CC[C@H]4[C@H](C)CC[C@@H]1[C@@]24OO3", "GI50": 130},
      {"smiles": "C[C@H]1[C@H](n2cc(-c3ccccc3C(F)(F)F)nn2)O[C@@H]2O[C@@]3(C)CC[C@H]4[C@H](C)CC[C@@H]1[C@@]24OO3", "GI50": 50},
      {"smiles": "CCCCCc1ccc(-c2cnnn2[C@@H]2O[C@@H]3O[C@@]4(C)CC[C@H]5[C@H](C)CC[C@@H]([C@H]2C)[C@@]35OO4)cc1", "GI50": 40},
      {"smiles": "Cc1ccc(-c2cn([C@H]3O[C@@H]4O[C@@]5(C)CC[C@H]6[C@H](C)CC[C@@H]([C@@H]3C)[C@@]46OO5)nn2)cc1", "GI50": 30},
      {"smiles": "C[C@H]1[C@H](n2nncc2-c2ccccc2C(F)(F)F)O[C@@H]2O[C@@]3(C)CC[C@H]4[C@H](C)CC[C@@H]1[C@@]24OO3", "GI50": 40},
      {"smiles": "C[C@@H]1CC[C@H]2[C@@H](C)C(n3cc(-c4cccc(Cl)c4)nn3)O[C@@H]3O[C@@]4(C)CC[C@@H]1[C@]32OO4", "note": "(stereo partly drawn)", "GI50": 50}
    ]},
    {"system": "DLD-1", "assay": "Cytotoxicity against human DLD-1 cells assessed as cell growth inhibition measured after 48 hrs by MTT assay", "type": "functional", "details": "not given", "units": {"GI50": "nM"}, "values": [
      {"smiles": "C[C@@H]1[C@@H](n2cc(-c3ccccc3)nn2)O[C@@H]2O[C@@]3(C)CC[C@H]4[C@H](C)CC[C@@H]1[C@@]24OO3", "GI50": 30},
      {"smiles": "C[C@H]1[C@H](n2nncc2-c2cc(F)cc(F)c2)O[C@@H]2O[C@@]3(C)CC[C@H]4[C@H](C)CC[C@@H]1[C@@]24OO3", "GI50": 40},
      {"smiles": "C[C@H]1[C@@H](n2cc(-c3ccccc3)nn2)O[C@@H]2O[C@@]3(C)CC[C@H]4[C@H](C)CC[C@@H]1[C@@]24OO3", "GI50": 130},
      {"smiles": "C[C@H]1[C@H](n2cc(-c3ccccc3C(F)(F)F)nn2)O[C@@H]2O[C@@]3(C)CC[C@H]4[C@H](C)CC[C@@H]1[C@@]24OO3", "GI50": 50},
      {"smiles": "CCCCCc1ccc(-c2cnnn2[C@@H]2O[C@@H]3O[C@@]4(C)CC[C@H]5[C@H](C)CC[C@@H]([C@H]2C)[C@@]35OO4)cc1", "GI50": 40},
      {"smiles": "Cc1ccc(-c2cn([C@H]3O[C@@H]4O[C@@]5(C)CC[C@H]6[C@H](C)CC[C@@H]([C@@H]3C)[C@@]46OO5)nn2)cc1", "GI50": 30},
      {"smiles": "C[C@H]1[C@H](n2nncc2-c2ccccc2C(F)(F)F)O[C@@H]2O[C@@]3(C)CC[C@H]4[C@H](C)CC[C@@H]1[C@@]24OO3", "GI50": 40},
      {"smiles": "C[C@@H]1CC[C@H]2[C@@H](C)C(n3cc(-c4cccc(Cl)c4)nn3)O[C@@H]3O[C@@]4(C)CC[C@@H]1[C@]32OO4", "note": "(stereo partly drawn)", "GI50": 50}
    ]},
    {"system": "SiHa", "assay": "Cytotoxicity against human SiHa cells assessed as cell growth inhibition measured after 48 hrs by MTT assay", "type": "functional", "details": "not given", "units": {"GI50": "nM"}, "values": [
      {"smiles": "C[C@@H]1[C@@H](n2cc(-c3ccccc3)nn2)O[C@@H]2O[C@@]3(C)CC[C@H]4[C@H](C)CC[C@@H]1[C@@]24OO3", "GI50": 30},
      {"smiles": "C[C@H]1[C@H](n2nncc2-c2cc(F)cc(F)c2)O[C@@H]2O[C@@]3(C)CC[C@H]4[C@H](C)CC[C@@H]1[C@@]24OO3", "GI50": 40},
      {"smiles": "C[C@H]1[C@@H](n2cc(-c3ccccc3)nn2)O[C@@H]2O[C@@]3(C)CC[C@H]4[C@H](C)CC[C@@H]1[C@@]24OO3", "GI50": 130},
      {"smiles": "C[C@H]1[C@H](n2cc(-c3ccccc3C(F)(F)F)nn2)O[C@@H]2O[C@@]3(C)CC[C@H]4[C@H](C)CC[C@@H]1[C@@]24OO3", "GI50": 50},
      {"smiles": "CCCCCc1ccc(-c2cnnn2[C@@H]2O[C@@H]3O[C@@]4(C)CC[C@H]5[C@H](C)CC[C@@H]([C@H]2C)[C@@]35OO4)cc1", "GI50": 40},
      {"smiles": "Cc1ccc(-c2cn([C@H]3O[C@@H]4O[C@@]5(C)CC[C@H]6[C@H](C)CC[C@@H]([C@@H]3C)[C@@]46OO5)nn2)cc1", "GI50": 30},
      {"smiles": "C[C@H]1[C@H](n2nncc2-c2ccccc2C(F)(F)F)O[C@@H]2O[C@@]3(C)CC[C@H]4[C@H](C)CC[C@@H]1[C@@]24OO3", "GI50": 40},
      {"smiles": "C[C@@H]1CC[C@H]2[C@@H](C)C(n3cc(-c4cccc(Cl)c4)nn3)O[C@@H]3O[C@@]4(C)CC[C@@H]1[C@]32OO4", "note": "(stereo partly drawn)", "GI50": 50}
    ]}
  ]
}
